Measured values from patent publication US20080146511A1, “SELECTION METHOD OF PEPTIDES, PEPTIDES, METHOD AND KIT OF INFECTION IDENTIFICATION BY MYCOBACTERIUM LEPRAE, PHARMACEUTICAL OR IMMUNOLOGICAL COMPOSITIONS CONTAINING PEPTIDES OF MYCOBACTERIUM LEPRAE OR SEQUENCES FUNCTIONALLY EQUIVALENT” (Fundacao Oswaldo Cruz - FIOCRUZ, priority 2006, published 2008).
Entries after “also recorded” stand apart in the source; their conditions may differ.

Test system: PBMC (peripheral blood mononuclear cells)
Assay type: cell-based, human
Set-up: key to IFN-γ response specificity mark (asterisk): *: Peptides that induced response in leprosy patients only, or contact groups (but not in TB or EC groups) appear with an asterisk
Details: for IFN-γ response specificity mark (asterisk) / specificity of IFN-γ response (PB and HC versus TB, EC, NEC): PBMC, day 5; for IFN-γ response specificity mark (asterisk): peptide 10 μg/ml, leprosy patients/contacts vs TB and EC groups; for specificity of IFN-γ response (PB and HC versus TB, EC, NEC) / IFN-γ responses in groups TB and EC: 10 μg/ml; for IFN-γ responses in groups TB and EC: PBMC of TB patients and endemic controls, day 5, cutoff 125 pg/ml; for comparison of IFN-γ levels between groups (ANOVA, Tukey post hoc): PB, MB, HC, TB, EC

Sequence | IFN-γ response specificity mark (asterisk) | further results
TRLLTVVVKQRSKAF [p38, M. leprae ML0008c aa 21-35] | p38* | 
LTVVVKQRSKAFRPS [p39, M. leprae ML0008c aa 24-38] | p39* | 
FDEYRAMFALSAMDL [p56, M. leprae ML0308 aa 17-31] | p56* | 
EAVLLRLDGTTLEVE [p65, M. leprae ML1419c aa 108-122] | p65* | specificity of IFN-γ response (PB and HC versus TB, EC, NEC): specific, inducing good responses in groups PB and HC, and no response in groups TB, EC or NEC
GNAMTTLGGRGISVV [p79, M. leprae ML0098 fbpC aa 84-98] |  | IFN-γ responses in groups TB and EC: induced responses in individuals in groups TB and EC; also recorded: most frequent responses in groups EC or TB
QVIFRDLTTQKAAEE [p66, M. leprae ML1419c aa 137-151] | p66* | 
AILYRKIHGQDPAER [p60, M. leprae ML0398c aa 288-302] |  | IFN-γ responses in groups TB and EC: induced responses in individuals in groups TB and EC
LQAYSNLFGRTSAMQ [p92, M. leprae ML2452c aa 28-42] | p92* | capacity to discriminate PB patients from exposed healthy individuals (HC): discriminate individuals with known infection by Mycobacterium leprae (patients PB) from those individuals exposed to said microorganism, but healthy; comparison of IFN-γ levels between groups (ANOVA, Tukey post hoc): induced the same kind of response
NHAVSSDFKTRSTNT [p54, M. leprae ML2567 aa 72-86] | p54* | 
QLLGQTADV [p52, M. leprae ML1057 aa 59-67] | p52* | specificity of IFN-γ response (PB and HC versus TB, EC, NEC): specific, inducing good responses in groups PB and HC, and no response in groups TB, EC or NEC
GDVWKSIVHLRSTRH [p81, M. leprae ML0126 aa 180-194] | p81* | 
MATIRTVRNLKLCNP [p37, M. leprae ML0008c aa 1-15] |  | IFN-γ responses in groups TB and EC: induced unexpected responses in groups EC or TB
LATVQYDDRRRFTKE [p91, M. leprae ML2347 aa 301-315] | p91* | capacity to discriminate PB patients from exposed healthy individuals (HC): discriminate individuals with known infection by Mycobacterium leprae (patients PB) from those individuals exposed to said microorganism, but healthy; comparison of IFN-γ levels between groups (ANOVA, Tukey post hoc): induced the same kind of response
LDDFLSLQRSISPNS [p42, M. leprae ML0126 aa 250-264] | p42* | 
DATFQVIFSQHVHLS [p83, M. leprae ML0394c aa 97-111] | p83* | 
DDFLSLQRSISPNSY [p44, M. leprae ML0126 aa 251-265] | p44* | 
QLMYLIEITSETKAL [p48, M. leprae ML0394c aa 22-36] | p48* | 
LNQLVSLVKQIFVQQ [p47, M. leprae ML0394c aa 73-87] | p47* | 
LLEEGVIVL [p68, M. leprae ML1419c aa 267-275] | p68* | capacity to discriminate PB patients from exposed healthy individuals (HC): discriminate individuals with known infection by Mycobacterium leprae (patients PB) from those individuals exposed to said microorganism, but healthy; comparison of IFN-γ levels between groups (ANOVA, Tukey post hoc): induced the same kind of response
DSTDTTDWSTAMTDA [p77, M. leprae ML2703 trxB aa 331-335] | p77* | 
GRYYAEINSAKMYFG [p49, M. leprae ML1057 aa 10-24] | p49* | 

Sequence | IFN-γ response specificity mark (asterisk) | further results
RVSYGSECRSGNCLR [p40, M. leprae ML0008c aa 107-121] | p40* | 
YGQVVRDVENTLRYL [p80, M. leprae ML0126 aa 125-139] | p80* | 
LDIYTTLARDMAAIP [p71, M. leprae ML1553 proS aa 180-194] | p71* | 
VKAVVDDVNAILLTGR [p74, M. leprae ML1915 aa 89-104] | p74* | 
DAEWLKLTSLGLRPR [p73, M. leprae ML1829 aa 108-122] | p73* | 
THAFDLVLSSHLLFT [p57, M. leprae ML0308 aa 139-153] |  | IFN-γ responses in groups TB and EC: induced responses in individuals in groups TB and EC
GMDVGKVEALKIDGD [p93, M. leprae ML2591 mce1C aa 62-76] |  | IFN-γ responses in groups TB and EC: most frequent responses in groups EC or TB
LILGLLPAI [p61, M. leprae ML0398c aa 16-24] | p61* | specificity of IFN-γ response (PB and HC versus TB, EC, NEC): more specific than longer 15-mer peptide
DDIWRTLASAVITGN [p88, M. leprae ML1189c aa 55-69] | p88* | 
SGRVTYLNPVGVKWM [p67, M. leprae ML1419c aa 51-65] | p67* | capacity to discriminate PB patients from exposed healthy individuals (HC): discriminate individuals with known infection by Mycobacterium leprae (patients PB) from those individuals exposed to said microorganism, but healthy; comparison of IFN-γ levels between groups (ANOVA, Tukey post hoc): higher in PB
KKRLTLLSGAMARRA [p82, M. leprae ML0394c aa 141-155] | p82* | 
GINLPKDELTAFGRK [p63, M. leprae ML0757c aa 6-20] | p63* | 
VYLYNYLLAETSHVL [p86, M. leprae ML0840c aa 287-301] | p86* | 
MQEYRGLTSHTPCCR [p70, M. leprae ML1420 aa 93-107] | p70* | 
VGKVQGLLARLLTLP [p76, M. leprae ML2498 aa 75-89] | p76* | 
RRTVKILRPLPSNIT [p53, M. leprae ML2567 aa 95-109] | p53* | 
AAALEQLLGQTADVA [p51, M. leprae ML1057 aa 54-68] | p51* | specificity of IFN-γ response (PB and HC versus TB, EC, NEC): specific, inducing good responses in groups PB and HC, and no response in groups TB, EC or NEC
TIEFLWQEGHSAHIE [p72, M. leprae ML1553 proS aa 154-168] |  | IFN-γ responses in groups TB and EC: induced responses in individuals in groups TB and EC; also recorded: most frequent responses in groups EC or TB
LQPYRLLRGGDSEYW [p75, M. leprae ML2177c aa 169-183] | p75* | capacity to discriminate PB patients from exposed healthy individuals (HC): discriminate individuals with known infection by Mycobacterium leprae (patients PB) from those individuals exposed to said microorganism, but healthy; comparison of IFN-γ levels between groups (ANOVA, Tukey post hoc): significantly higher in HC
RLDGTTLEV [p69, M. leprae ML1419c aa 113-121] | p69* | comparison of IFN-γ levels between groups (ANOVA, Tukey post hoc): significantly higher in HC (p=0.02) and in PB (p=0.01); specificity of IFN-γ response (PB and HC versus TB, EC, NEC): specific, inducing good responses in groups PB and HC, and no response in groups TB, EC or NEC
